For series [1], the target named is T1, human TRPV1 receptor (hTRPV1) (Homo sapiens, UniProt Q8NER1).
T1 construct: expressed in transfected cells
The series is described as follows: Capsaicin activation assay (Ca2+ influx, FLIPR). The class given is cell-based. Particulars: 0.05 μM capsaicin, 1321N1 cells expressing hTRPV1. As to the method:
Dulbecco's modified Eagle medium (D-MEM) (with 4.5 mg/mL glucose) and fetal bovine serum were obtained from Hyclone Laboratories, Inc. (Logan, Utah). Dulbecco's phosphate-buffered saline (D-PBS) (with 1 mg/mL glucose and 3.6 mg/l Na pyruvate, without phenol red), L-glutamine, hygromycin B, and Lipofectamine® were obtained from Life Technologies (Grand Island, N.Y.). G418 sulfate was obtained from Calbiochem-Novabiochem Corp. (San Diego, Calif.). Capsaicin (8-methyl-N-vanillyl-6-nonenamide) was obtained from Sigma-Aldrich, Co. (St. Louis, Mo.). Fluo-4 AM (N-[4-[6-[(acetyloxy)methoxy]-2,7-difluoro-3-oxo-3H-xanthen-9-yl]-2-[2-[2-[bis[2-[(acetyloxy)methoxy]-2-oxyethyl]amino]-5-methyl-phenoxy]ethoxy]phenyl]-N-[2-[(acetyloxy)methoxy]-2-oxyethyl]-glycine, (acetyloxy)methyl ester) was purchased from Molecular Probes (Eugene, Oreg.).
The cDNAs for the human TRPV1 receptor (hTRPV1) were isolated by reverse transcriptase-polymerase chain reaction (RT-PCR) from human small intestine poly A+RNA supplied by Clontech (Palo Alto, Calif.) using primers designed surrounding the initiation and termination codons identical to the published sequences (Hayes et al. Pain 2000, 88, 205-215). The resulting cDNA PCR products were subcloned into pCIneo mammalian expression vector (Promega) and fully sequenced using fluorescent dye-terminator reagents (Prism, Perkin-Elmer Applied Biosystems Division) and a Perkin-Elmer Applied Biosystems Model 373 DNA sequencer or Model 310 genetic analyzer. Expression plasmids encoding the hTRPV1 cDNA were transfected individually into 1321N1 human astrocytoma cells using Lipofectamine®. Forty-eight hours after transfection, the neomycin-resistant cells were selected with growth medium containing 800 μg/mL Geneticin (Gibco BRL). Surviving individual colonies were isolated and screened for TRPV1 receptor activity. Cells expressing recombinant homomeric TRPV1 receptors were maintained at 37° C. in D-MEM containing 4 mM L-glutamine, 300 μg/mL G418 (Cal-biochem) and 10% fetal bovine serum under a humidified 5% CO2 atmosphere.
The functional activity of compounds at the TRPV1 receptor was determined with a Ca^2+ influx assay and measurement of intracellular Ca^2+ levels ([Ca^2+]i). All compounds were tested over an 11-point half-log concentration range. Compound solutions were prepared in D-PBS (4× final concentration), and diluted serially across 96-well v-bottom tissue culture plates using a Biomek 2000 robotic automation workstation (Beckman-Coulter, Inc., Fullerton, Calif.). A 0.2 μM solution of the TRPV1 agonist capsaicin was also prepared in D-PBS. The fluorescent Ca^2+ chelating dye Fluo-4 AM was used as an indicator of the relative levels of [Ca^2+]i in a 96-well format using a Fluorescence Imaging Plate Reader (FLIPR) (Molecular Devices, Sunnyvale, Calif.). Cells were grown to confluency in 96-well black-walled tissue culture plates. Then, prior to the assay, the cells were loaded with 100 μL per well of Fluo-4 AM (2 μM, in D-PBS) for 1-2 hours at 23° C. Washing of the cells was performed to remove extracellular Fluo-4 AM (2×1 mL D-PBS per well), and afterward, the cells were placed in the reading chamber of the FLIPR instrument. 50 μL of the compound solutions were added to the cells at the 10 second time mark of the experimental run. Then, after a 3-minute time delay, 50 μL of the capsaicin solution was added at the, 190 second time mark (0.05 μM final concentration)(final volume=200 μL) to challenge the TRPV1 receptor. Time length of the experimental run was 240 seconds. Fluorescence readings were made at 1 to 5 second intervals over the course of the experimental run. The peak increase in relative fluorescence units (minus baseline) was calculated from the 190 second time mark to the end of the experimental run, and expressed as a percentage of the 0.05 μM capsaicin (control) response. […]

Series [2] is described as follows: Rat telemetry protocol (core body temperature). The class given is in vivo. To be noted: core body temperature of rats at one hour post dosing (100 μmol/kg, p.o.), relative to vehicle. On the procedure: Male, Sprague Dawley rats, 225-250 grams were anesthetized with Sevoflurane (Abbott Laboratories). Rats were placed on a heating pad and covered with a sterile surgical drape. A ventral midline abdominal incision was made and sterile cotton tip applicators were used to gently move internal tissue and expose the abdominal aorta for implantation of the telemetry catheter (Data Sciences International; TL11M2-050-PXT). Blood flow was temporarily stopped to the lower extremities (5-7 min) with Diffenbach clamps to allow the insertion of the telemetry catheter into the abdominal aorta. Once inserted, a sterile cellulose patch was placed over the catheter/aorta and secured using a small amount of tissue adhesive (Vetbond, 3M). Once catheter placement was complete, the clamps were removed and blood flow was restored to the lower extremities. The transmitter was placed in the intraperitoneal cavity. The transmitter suture rib was sewn into the abdominal sutures to secure it in place. The skin was closed using sterile wound clips and the animal removed from Sevoflurane. Buprenex ([…] s.c.; Phoenix) was administered for post-operative analgesia. Animals were maintained on a heating pad until ambulatory, and then individually housed with food and water ad lib. Surgical staples were removed after 7-10 days post-implantation. Rats were allowed a 2-week post-surgical recovery period before treatment with test compound. Oral dosing (p.o.) was at time zero, with rats receiving a single dose of vehicle (10% EtOH, 20% Tween-80, 70% PEG-400) or a 100 μmol/kg dose of compound dissolved in vehicle. Temperature measurements were recorded every 15 minutes for the duration of the study (24 hours).
The term “core body temperature” as used herein, means the temperature measured in the intraperitoneal cavity.

T1 sequence (Q8NER1 whole entry): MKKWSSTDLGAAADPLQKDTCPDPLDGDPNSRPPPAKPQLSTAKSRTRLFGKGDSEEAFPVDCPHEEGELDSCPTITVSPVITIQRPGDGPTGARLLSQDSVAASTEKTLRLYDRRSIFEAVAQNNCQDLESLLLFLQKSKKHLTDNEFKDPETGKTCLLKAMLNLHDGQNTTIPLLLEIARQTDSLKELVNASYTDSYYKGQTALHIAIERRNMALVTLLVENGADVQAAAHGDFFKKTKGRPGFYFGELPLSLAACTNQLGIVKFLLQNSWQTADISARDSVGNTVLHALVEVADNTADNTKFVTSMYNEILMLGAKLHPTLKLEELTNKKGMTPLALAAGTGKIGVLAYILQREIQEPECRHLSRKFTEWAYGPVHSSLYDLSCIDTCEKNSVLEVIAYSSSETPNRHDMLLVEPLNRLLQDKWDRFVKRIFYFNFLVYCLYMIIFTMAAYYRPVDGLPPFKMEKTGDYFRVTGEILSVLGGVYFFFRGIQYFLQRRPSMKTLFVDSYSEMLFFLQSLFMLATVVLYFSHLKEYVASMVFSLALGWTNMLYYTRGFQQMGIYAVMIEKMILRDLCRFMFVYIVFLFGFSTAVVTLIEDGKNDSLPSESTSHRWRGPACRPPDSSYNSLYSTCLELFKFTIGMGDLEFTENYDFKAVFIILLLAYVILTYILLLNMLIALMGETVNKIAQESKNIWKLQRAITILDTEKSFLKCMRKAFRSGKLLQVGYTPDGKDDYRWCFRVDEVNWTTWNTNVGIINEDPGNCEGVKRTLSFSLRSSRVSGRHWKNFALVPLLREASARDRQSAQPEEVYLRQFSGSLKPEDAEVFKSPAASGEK

With `CCC1(CC)C[C@@H](NC(=O)Nc2cccc3c2C[C@@H](O)CC3)c2cc(F)ccc2O1` [Example 73, N-[(4R)-2,2-diethyl-6-fluoro-3,4-dihydro-2H-chromen-4-yl]-N′-[(7S)-7-hydroxy-5,6,7,8-tetrahydronaphthalen-1-yl]urea], the midpoint of inhibition in series [1], the IC50, lay at 9 nM. For the same compound, the “Δ Temp” value in series [2] was 0.9 °C.

Regarding `CCC1(CC)C[C@@H](NC(=O)Nc2cccc3c2C[C@H](O)CC3)c2ccc(Cl)cc2O1` [Example 75, N-[(4R)-7-chloro-2,2-diethyl-3,4-dihydro-2H-chromen-4-yl]-N′-[(7R)-7-hydroxy-5,6,7,8-tetrahydronaphthalen-1-yl]urea], the IC50 in series [1] is 10 nM. Further, the “Δ Temp” value in series [2] turned out to be 1.0 °C.

In series [1], `CCC1(CC)C[C@@H](NC(=O)Nc2cccc3c2C[C@H](O)CC3)c2cccc(F)c2O1` [Example 52, N-[(4R)-2,2-diethyl-8-fluoro-3,4-dihydro-2H-chromen-4-yl]-N′-[(7R)-7-hydroxy-5,6,7,8-tetrahydronaphthalen-1-yl]urea] came in with a half-inhibitory concentration (IC50) of 20 nM. Further, the “Δ Temp” value in series [2] amounted to 1.2 °C.

In the case of `CC1(C)C[C@@H](NC(=O)Nc2cccc3cnc(N)cc23)c2ccc(C(F)(F)F)cc2O1` [Example 90, N-(3-aminoisoquinolin-5-yl)-N′-[(4R)-2,2-dimethyl-7-(trifluoromethyl)-3,4-dihydro-2H-chromen-4-yl]urea], in series [1], the IC50 was found to be 17 nM. In addition, the “Δ Temp” value in series [2] turned out to be 1.0 °C.

Regarding `CC1(C)C[C@@H](NC(=O)Nc2cccc3c2C[C@H](O)CC3)c2cc(F)ccc2O1` [Example 4, N-[(4R)-6-fluoro-2,2-dimethyl-3,4-dihydro-2H-chromen-4-yl]-N′-[(7R)-7-hydroxy-5,6,7,8-tetrahydronaphthalen-1-yl]urea], the IC50 in series [1] was determined as 30 nM. Besides, the “Δ Temp” value in series [2] was 0.6 °C.

Take `Cc1cc2c(NC(=O)N[C@@H]3C[C@@](C)(CF)Oc4cc(C(F)(F)F)ccc43)cccc2cn1` [Example 129, N-[(2S,4R)-2-(fluoromethyl)-2-methyl-7-(trifluoromethyl)-3,4-dihydro-2H-chromen-4-yl]-N′-(3-methylisoquinolin-5-yl)urea]: 15 nM corresponded to half-maximal inhibition in series [1] (IC50). In addition, in series [2], the “Δ Temp” value came out at 0.7 °C.

Turning to `CCC1(CC)C[C@@H](NC(=O)Nc2cccc3c2cnn3C)c2cc(F)cc(F)c2O1` [Example 60, N-[(4R)-2,2-diethyl-6,8-difluoro-3,4-dihydro-2H-chromen-4-yl]-N′-(1-methyl-1H-indazol-4-yl)urea], in series [1], the midpoint of inhibition, the IC50, lay at 22 nM. In addition, the “Δ Temp” value in series [2] was 0.7 °C.

`Cn1ncc2c(NC(=O)N[C@@H]3CC(C)(C)Oc4ccc(F)cc43)cccc21` [Example 1, N-[(4R)-6-fluoro-2,2-dimethyl-3,4-dihydro-2H-chromen-4-yl]-N′-(1-methyl-1H-indazol-4-yl)urea] came in with an IC50 in series [1] of 229 nM. For the same compound, the “Δ Temp” value in series [2] turned out to be 0.5 °C.

In series [1], `CC1(C)C[C@@H](NC(=O)Nc2cccc3ccncc23)c2ccc(C(F)(F)F)cc2O1` [Example 43, N-[(4R)-2,2-dimethyl-7-(trifluoromethyl)-3,4-dihydro-2H-chromen-4-yl]-N′-isoquinolin-8-ylurea] had an IC50 of 28 nM. In addition, in series [2], the “Δ Temp” value worked out at 1.5 °C.

`CCC1(CC)C[C@@H](NC(=O)Nc2cccc3c2cnn3C)c2ccc(Cl)cc2O1` [Example 78, N-[(4R)-7-chloro-2,2-diethyl-3,4-dihydro-2H-chromen-4-yl]-N′-(1-methyl-1H-indazol-4-yl)urea] returned an IC50 in series [1] of 13 nM. Besides, the “Δ Temp” value in series [2] turned out to be 0.6 °C.

In turn, `Cn1ncc2c(NC(=O)N[C@@H]3CC(CF)(CF)Oc4cc(OC(F)(F)F)ccc43)cccc21` [Example 92, N-[(4R)-2,2-bis(fluoromethyl)-7-(trifluoromethoxy)-3,4-dihydro-2H-chromen-4-yl]-N′-(1-methyl-1H-indazol-4-yl)urea] showed an IC50 in series [1] of 21 nM. The “Δ Temp” value in series [2] came out at 0.8 °C.

Compound `Cc1cc2c(NC(=O)N[C@@H]3CC(C)(C)Oc4cc(C(F)(F)F)ccc43)c(F)ccc2cn1` [Example 125, N-[(4R)-2,2-dimethyl-7-(trifluoromethyl)-3,4-dihydro-2H-chromen-4-yl]-N′-(6-fluoro-3-methylisoquinolin-5-yl)urea] had an IC50 in series [1] of 35 nM. In addition, in series [2], the “Δ Temp” value came out at 0.5 °C.

For `Cn1ncc2c(NC(=O)N[C@@H]3CC(C)(C)Oc4cc(F)ccc43)cccc21` [Example 24, N-[(4R)-7-fluoro-2,2-dimethyl-3,4-dihydro-2H-chromen-4-yl]-N′-(1-methyl-1H-indazol-4-yl)urea], it took 52 nM to reach half-maximal inhibition in series [1] (IC50). Moreover, in series [2], the “Δ Temp” value came to 1.3 °C.

Consider `CC1(C)C[C@@H](NC(=O)Nc2cccc3c2C[C@H](O)CC3)c2ccccc2O1` [Example 36, N-[(4R)-2,2-dimethyl-3,4-dihydro-2H-chromen-4-yl]-N′-[(7R)-7-hydroxy-5,6,7,8-tetrahydronaphthalen-1-yl]urea], for which the IC50 in series [1] was 33 nM. In addition, the “Δ Temp” value in series [2] was 0.7 °C.

As to `O=C(Nc1cccc2c1C[C@H](O)CC2)N[C@@H]1CC(CF)(CF)Oc2cc(Cl)ccc21` [Example 105, N-[(4R)-7-chloro-2,2-bis(fluoromethyl)-3,4-dihydro-2H-chromen-4-yl]-N′-[(7R)-7-hydroxy-5,6,7,8-tetrahydronaphthalen-1-yl]urea], half-maximal inhibition in series [1] (IC50) required 35 nM. Also, the “Δ Temp” value in series [2] stood at 1.1 °C.

`CC1(C)C[C@@H](NC(=O)Nc2cccc3c2C[C@@H](O)CC3)c2ccc(F)c(Cl)c2O1` [Example 109, N-[(4R)-8-chloro-7-fluoro-2,2-dimethyl-3,4-dihydro-2H-chromen-4-yl]-N′-[(7S)-7-hydroxy-5,6,7,8-tetrahydronaphthalen-1-yl]urea] gave a half-inhibitory concentration (IC50) in series [1] of 21 nM. For the same compound, in series [2], the “Δ Temp” value worked out at 1.2 °C.

For `Cc1cc2c(NC(=O)N[C@@H]3CC(C)(C)Oc4cc(OC(F)(F)F)ccc43)cccc2cn1` [Example 80, N-[(4R)-2,2-dimethyl-7-(trifluoromethoxy)-3,4-dihydro-2H-chromen-4-yl]-N′-(3-methylisoquinolin-5-yl)urea], in series [1], the midpoint of inhibition, the IC50, lay at 8 nM. For the same compound, the “Δ Temp” value in series [2] was determined as 1.7 °C.

`O=C(Nc1cccc2c1C[C@@H](O)CC2)N[C@@H]1CC(CF)(CF)Oc2cc(C(F)(F)F)ccc21` [Example 112, N-[(4R)-2,2-bis(fluoromethyl)-7-(trifluoromethyl)-3,4-dihydro-2H-chromen-4-yl]-N′-[(7S)-7-hydroxy-5,6,7,8-tetrahydronaphthalen-1-yl]urea] showed an IC50 in series [1] of 34 nM. The “Δ Temp” value in series [2] was found to be 1.4 °C.

The values are drawn from patent US8609692B2, “TRPV1 antagonists” (AbbVie Inc., priority 2008, dated 2013).
